# In US20230285504A1, “INHIBITION OF REPERFUSION INJURY WITH A PSD-95 INHIBITOR” (NONO INC., priority 2020, published 2023):
# Entries after “also recorded” stand apart in the source; their conditions may differ. No end group written: not given here.
# Columns and labels:
# [1] = tested on: patients with acute ischemic stroke (AIS) due to a large vessel arterial occlusion selected for endovascular thrombectomy; test: ESCAPE-NA1 phase 3 trial, exploratory re-analyses of dosing time (mRS 0-2 at 90 days); assay type: in vivo, human
# Description: The details of the ESCAPE-NA1 methodology are published^2. In-brief, the trial was conducted at 48 sites globally. Adult patients aged 18 or greater with a disabling ischemic stroke (baseline National Institutes of Health Stroke Scale (NIHSS) score^11>5), CT evidence of a small-to-moderate ischemic core (ASPECTS 5-10)^12 and CTA evidence of LVO with a moderate-to-good collateral circulation^13,14 were enrolled in a window of up to 12 hours after the onset of stroke symptoms (last-seen-well time). Enrollment was stratified on the use of intravenous alteplase (yes/no) and declared initial thrombectomy device (stent-retriever or aspiration device). Randomized minimization was conducted within strata aimed to achieve distribution balance with regard to age, sex, baseline NIHSS, site of arterial occlusion, baseline ASPECTS and clinical site. Nerinetide and placebo vials were visually identical other than a unique vial number so that all trial personnel and patients were fully masked to treatment allocation.
# After qualifying imaging, patients were treated with rapid EVT using currently available devices. Patients received intravenous alteplase^15 according to usual care following national or regional guidelines, before or during EVT, at a primary hospital prior to transfer or at the endovascular center. Treatment with alteplase was not a requirement for the study and interpretation of treatment guidelines was at the discretion of the treating team. Patients received trial drug (1:1 nerinetide:placebo), as a single dose of 2.6 mg/kg to a maximum dose of 270 mg as soon as possible after randomization. Time targets were imaging to randomization 30 minutes, imaging to study drug administration 60 minutes, and imaging to arterial access/puncture 60 minutes. Targets from imaging to reperfusion were 90th percentile 90 minutes and a median at 75 minutes.^16,17 Times (min) for workflow are summarized in Table 3.
# The primary outcome was good outcome at 90 days as defined by a score of 0-2 on the modified Rankin scale (mRS) (range, 0 [no symptoms] to 6 [death]) for the assessment of neurologic functional disability^18-20. Secondary 90 day efficacy outcomes included neurological outcome as defined by the NIHSS of 0-2, functional independence in activities of daily living as defined by a Barthel Index score of 95, and mortality rates. Tertiary outcomes included assessments of stroke volumes on 24-hour imaging (MR or CT brain). Imaging interpretation was conducted at a central core laboratory and clinical data were verified by independent monitors. Infarct volumes were measured by summation of manual planimetric demarcation of infarct on axial imaging (636/1099 (57.9%) on CT and 463/1099 (42.1%) on MRI).
# Analyses of efficacy in this stratum were conducted as per the primary analysis of ESCAPE-NA1 on the intention-to-treat (ITT) population, and comprised a logistic regression providing an adjusted estimate of effect size including treatment, the stratification variable of declared initial endovascular approach, and the baseline covariates of age, sex, baseline NIHSS score, baseline ASPECTS, occlusion location and clinical site. Analyses of secondary efficacy outcomes were conducted similarly to the primary analysis. To determine the impact of time metrics of interest on the efficacy of nerinetide (e.g., Onset to randomization, CT to reperfusion, Randomization to reperfusion, and Drug administration to reperfusion), the metrics variables were included in the regression analysis that was otherwise conducted like the primary analysis. Deceased patients were included in the ITT population with a mRS score of 6, a Barthel Index of 0 and NIHSS of 42. Missing primary outcomes (n=9) were imputed as the worst possible score, counted as poor outcome (mRS 3-6 dichotomy) and for mortality analysis, imputed as deaths. All analyses were performed with the use of STATA software (v16.0).
# [2] = PK dose-separation study of nerinetide and alteplase in macaques; assay type: in vivo, cynomolgus macaques (Macaca fascicularis); conditions: macaque
# Description: We conducted further PK studies to probe the necessary dose-separation interval to mitigate degradation. These studies were conducted in cynomolgus macaques (Macaca fascicularis) to maximize their relevance to humans. Nerinetide was given as a 10-minute intravenous infusion at a dose of 2.6 mg/kg. This dosing regimen was neuroprotective in macaques exposed to stroke by LVO (Cook et al., Nature 483, 213-217 (2012)) and was used in both the Phase 2 ENACT trial (Lancet Neurol 11, 942-950 (2012)) and the ESCAPE-NA1 trial (Lancet 395, 878-887 (2020)). We examined the scenarios in which alteplase administration was started simultaneously with the nerinetide infusion start, at the end of the 10-minute nerinetide infusion, or 10 minutes after the end of nerinetide infusion. Alteplase (1 mg/kg) was administered through a separate intravenous line as a 10% bolus, followed by an infusion of the remaining 90% over 1 hour, as per its clinical use.
# [3] = Intrinsic fibrinolytic activity
# [4] = target: protein-protein interactions of PSD-95 with neuronal nitric oxide synthase (nNOS) (Homo sapiens, UniProt P78352); conditions: read-out: IC50 perturbing PSD-95 interaction with nNOS; cited from earlier work
# [5] = tested on: patients with acute ischemic stroke (AIS) due to a large vessel arterial occlusion selected for endovascular thrombectomy; conditions: published primary trial result; cited from earlier work
# [6] = intravenous over 10 minutes; cited from earlier work
# [7] = no-alteplase, drug started 22 or more minutes from initial reperfusion
# [8] = no-alteplase, long CT to reperfusion interval (>=73.5 minutes)
# [9] = no-alteplase, study drug started less than 5 minutes after groin puncture
# [10] = alteplase started at the end of the 10-minute nerinetide infusion
# [11] = nerinetide 2.6 mg/kg 10-minute iv infusion, alteplase 1 mg/kg started simultaneously
# protein-protein interactions of PSD-95 with neuronal nitric oxide synthase (nNOS), sequence (P78352 whole entry): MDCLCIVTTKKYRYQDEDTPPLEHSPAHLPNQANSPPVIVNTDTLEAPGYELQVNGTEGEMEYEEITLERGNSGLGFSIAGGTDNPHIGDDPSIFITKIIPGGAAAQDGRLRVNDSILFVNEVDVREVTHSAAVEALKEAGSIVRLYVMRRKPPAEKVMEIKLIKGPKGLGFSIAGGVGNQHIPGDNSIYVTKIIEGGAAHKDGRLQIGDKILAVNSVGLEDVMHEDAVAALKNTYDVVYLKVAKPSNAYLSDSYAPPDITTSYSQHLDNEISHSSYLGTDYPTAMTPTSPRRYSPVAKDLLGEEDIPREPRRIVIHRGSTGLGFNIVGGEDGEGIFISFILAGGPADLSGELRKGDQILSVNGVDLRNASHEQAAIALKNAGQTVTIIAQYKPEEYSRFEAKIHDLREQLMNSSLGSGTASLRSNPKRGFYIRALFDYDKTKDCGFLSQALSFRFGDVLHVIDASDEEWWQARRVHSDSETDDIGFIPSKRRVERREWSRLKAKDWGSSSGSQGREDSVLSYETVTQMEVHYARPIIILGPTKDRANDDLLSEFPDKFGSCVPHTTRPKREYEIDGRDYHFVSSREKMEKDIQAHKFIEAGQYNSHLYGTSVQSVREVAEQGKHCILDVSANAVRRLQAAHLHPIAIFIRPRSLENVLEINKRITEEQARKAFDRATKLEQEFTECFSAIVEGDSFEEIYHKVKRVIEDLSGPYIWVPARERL
sequence,measurement,setting,value
YGRKKRRQRRRKLSSIESDV [nerinetide],adj. OR for favorable outcome (mRS 0-2 at 90 days),"[1]; no-alteplase stratum, all time windows of 12 h enrollment, nerinetide 2.6 mg/kg vs placebo",1.757
same,absolute effect size of nerinetide over placebo,[1]; [7],16.25%
same,relative effect,[1]; [7],50.0%
same,adj OR for functional outcome (mRS 0-2),[1]; [8],5.100
same,relative effect,[1]; [8],43.3%
same,unadjusted absolute effect size,[1]; [8],16.52%
same,adj OR for mRS(0-2),"[1]; no-alteplase, long interval drug infusion start to initial reperfusion (>=22 minutes)",2.715
same,adj OR for functional outcome (mRS 0-2),"[1]; no-alteplase, short CT to reperfusion interval (<73.5 minutes)",0.825
same,adj OR for mRS(0-2),"[1]; no-alteplase, short interval drug infusion start to initial reperfusion (<22 minutes)",1.13
same,"adj OR, primary analysis (mRS 0-2)","[1]; no-alteplase, study drug more than 5 minutes after groin puncture",1.50
same,"adj OR, primary analysis (mRS 0-2)","[1]; no-alteplase, study drug started at any time less than 5 minutes after groin puncture",2.33
same,absolute effect size of nerinetide over placebo,[1]; [9],16.56%
same,relative effect,[1]; [9],36.1%
same,absolute effect sizes,"[1]; no-alteplase, treated in longer intervals from reperfusion (summary)",approximately 16%
same,absolute effect,[1]; whole no-alteplase stratum,9.65%
same,degradation of Cmax or AUC of nerinetide by alteplase,[2]; alteplase 10 minutes after the end of the 10-min nerinetide infusion,eliminated degradation of Cmax or AUC by alteplase to within the margin of measurement error; also recorded: substantially reduces cleavage of nerinetide
same,reduction in the AUC of nerinetide,[2]; [10],32.3%
same,reduction of the Cmax of nerinetide,[2]; [10],23.1%
same,reduction in the AUC of nerinetide,[2]; [11],53.9%
same,reduction of the Cmax of nerinetide,[2]; [11],47.4%
same,intrinsic fibrinolytic activity,[3],does not have any intrinsic fibrinolytic activity
same,IC50,[4],~200 nM
same,"outcome in ESCAPE-NA1, nerinetide group that did not receive alteplase",[5],"improved functional independence, reduced mortality, and reduced infarct volume"
same,"outcome in ESCAPE-NA1, patients that received alteplase",[5],did not benefit
same,plasma half-life,[6],5 to 10 min
